Data on one molecule can be found in the NIST ThermoML archive (doi:10.1016/j.fluid.2013.11.034).

Numbers after ± are expanded uncertainties.

For data set [1] the following is noted: 101.33 kPa, Liquid, Vibrating tube method.
A short description of data set [2]: refractive index (Na D-line) (dimensionless). The following applies: 298.15 K; 101.33 kPa; Liquid; Standard Abbe refractometry.

The term mass density denotes the mass of a sample divided by its volume. In general, refractive index refers to the speed of light in vacuum divided by its phase velocity in the sample. `CCCCn1cc[n+](C)c1.F[P-](F)(F)(F)(F)F` [1-butyl-3-methylimidazolium hexafluorophosphate]: the values for the mass density in data set [1] (293.15 K) and in data set [1] (298.15 K) were 1371.4 ± 1.2 kg/m3 and 1367.23 ± 1.1 kg/m3, respectively. Besides, the refractive index in data set [2] is 1.40926 ± 0.0006.
